Laboratory results as given in patent US20020065227A1, “Charged compounds comprising a nucleic acid binding moiety and uses therefor” (priority 2000, published 2002).
Values after ≈ are worked out from the molar mass of the structure shown. Values joined by “and” are separate entries in the source; they are usually repeats but may differ in a detail not shown here. Equal values may be shown once.

Assays:
Bacillus cereus (11778) = experiment: MIC, NCCLS broth microdilution; assay type: cell-based
[1] = tested on: Staphylococcus epidermidis (12228); experiment: MIC, NCCLS broth microdilution; assay type: cell-based; settings: Staphylococcus epidermidis (12228)
[2] = tested on: Enterococcus faecium (51559) (vacomycin resistant); experiment: MIC, NCCLS broth microdilution; assay type: cell-based; settings: Enterococcus faecium (51559), vancomycin resistant
[3] = tested on: Staphylococcus aureus (33591) (methicillin resistant); experiment: MIC, NCCLS broth microdilution; assay type: cell-based; settings: Staphylococcus aureus (33591), methicillin resistant (MRSA)
[4] = tested on: Streptococcus pneumoniae (49619); experiment: MIC, NCCLS broth microdilution; assay type: cell-based; settings: Streptococcus pneumoniae (49619)
Esherichia coli (25922) = experiment: MIC, NCCLS broth microdilution; assay type: cell-based, Escherichia coli; settings: Escherichia coli (25922)
AATACT = experiment: DNase I footprint titration, AATACT site; assay type: binding; settings: equilibrium association constant Ka; pH 7.0, 22° C.
[5] = tested on: Corynebacterium Group A (49676); experiment: MIC, NCCLS broth microdilution; assay type: cell-based; settings: Corynebacterium Group A (49676)
[6] = tested on: Enterococcus faecalis (29212); experiment: MIC, NCCLS broth microdilution; assay type: cell-based; settings: Enterococcus faecalis (29212)
[7] = tested on: Streptococcus pneumoniae (51422) (multiple drug resistant); experiment: MIC, NCCLS broth microdilution; assay type: cell-based
Bacillus subtilis (6633) = experiment: MIC, NCCLS broth microdilution; assay type: cell-based; settings: Bacillus subtilis (6633)
Micrococcus luteus (381) = experiment: MIC, NCCLS broth microdilution; assay type: cell-based
[8] = tested on: Staphylococcus aureus (29213); experiment: MIC, NCCLS broth microdilution; assay type: cell-based; settings: Staphylococcus aureus (29213)
[9] = tested on: Pseudomona aeruginosa (27853); experiment: MIC, NCCLS broth microdilution; assay type: cell-based; settings: Pseudomona aeruginosa (27853)
ACTACT = experiment: DNase I footprint titration, ACTACT site; assay type: binding; settings: equilibrium association constant Ka; pH 7.0, 22° C.
[10] = tested on: Clostridium perfringens (13124); experiment: microbe, parasite or virus in culture; assay type: cell-based; settings: Clostridium perfringens (13124), anaerobe
Candida albicans (90028) = experiment: MIC, antifungal assay; assay type: cell-based
[11] = tested on: Propionibacterium acnes (33179); experiment: MIC, NCCLS broth microdilution; assay type: cell-based; settings: anaerobe
[12] = tested on: Peptostreptococcus asaccharolytics (29743); experiment: MIC, NCCLS broth microdilution; assay type: cell-based; settings: anaerobe
AGTACT = experiment: DNase I footprint titration, AGTACT site; assay type: binding; settings: equilibrium association constant Ka; pH 7.0, 22° C.
ATTACT = experiment: DNase I footprint titration, ATTACT site; assay type: binding; settings: equilibrium association constant Ka; pH 7.0, 22° C.
[13] = tested on: Streptococcus pyogenes (49339); experiment: MIC, NCCLS broth microdilution; assay type: cell-based; settings: Streptococcus pyogenes (49339); Table Ia: Streptococcus Group A(49339)
[14] = tested on: Candida albicans (38247) (Polyene resistant); experiment: MIC, antifungal assay; assay type: cell-based
[15] = Bacillus cereus, strain not stated

| Compound | MIC (Esherichia coli (25922)) | MIC (Bacillus cereus (11778); Bacillus cereus (11778)) [µg/mL] | MIC [8] | MIC [14] [µg/mL] | also measured |
| --- | --- | --- | --- | --- | --- |
| Cn1cc(NC(=O)c2cc(NC(=O)c3nsc(NCCN4CCOCC4)c3Cl)cn2C)cc1C(N)=O [V-bb] |  |  |  |  | MIC (Bacillus cereus (11778); [15]): 8 µg/mL (≈ 15 µM) |
| CN(C)CCCNC(=O)c1cc(NC(=O)c2cc(NC(=O)c3cc(NC(=O)c4nsc(NCCN)c4Cl)cn3C)cn2C)cn1C [V-c] | >128 µg/mL | 4 (≈ 5.95 µM) | 8 µg/mL (≈ 11.9 µM) |  | MIC [1]: 8 µg/mL (≈ 11.9 µM); MIC [2]: 8 µg/mL (≈ 11.9 µM); MIC [3]: 16 µg/mL (≈ 23.8 µM); MIC [4]: 2 µg/mL (≈ 2.98 µM); Binding Constant, sequence AATACT (AATACT): 2e+08 M⁻¹; MIC [5]: 1 µg/mL (≈ 1.49 µM); MIC [6]: 4 µg/mL (≈ 5.95 µM); MIC [7]: 4 µg/mL (≈ 5.95 µM); MIC (Bacillus subtilis (6633)): 4 µg/mL (≈ 5.95 µM); MIC (Micrococcus luteus (381)): 8 µg/mL (≈ 11.9 µM); MIC [9]: >128 µg/mL; Binding Constant, sequence ACTACT (ACTACT): 2e+08 M⁻¹; MIC [10]: 2 µg/mL (≈ 2.98 µM); MIC (Candida albicans (90028)): 8 µg/mL (≈ 11.9 µM); MIC [11]: 8 µg/mL (≈ 11.9 µM); MIC [12]: 0.5 µg/mL (≈ 0.744 µM); Binding Constant, sequence AGTACT (AGTACT): 5e+09 M⁻¹; Binding Constant, sequence ATTACT (ATTACT): 2e+08 M⁻¹; MIC [13]: 2 µg/mL (≈ 2.98 µM) |
| Cn1cc(NC(=O)c2cc(NC(=O)c3cc(NC(=O)c4nsc(Cl)c4Cl)cn3C)cn2C)cc1C(=O)NCCC(=N)N [V-ee] | 64, μg/mL and 32 μg/mL | 0.25 (≈ 0.395 µM) | 0.25, μg/mL and 0.125 μg/mL | 2 (≈ 3.16 µM) |  |
| Cn1cc(NC(=O)c2cc(NC(=O)c3cc(NC(=O)c4nsc(NCCCNC5CCCCC5)c4Cl)cn3C)cn2C)cc1C(=O)NCCCNC1CCCCC1 [V-ff] | 32 µg/mL (≈ 38.9 µM) | 2 (≈ 2.43 µM) | 1 µg/mL (≈ 1.22 µM) | 16 (≈ 19.5 µM) |  |
| Cn1cc(NC(=O)c2cc(NC(=O)c3cc(NC(=O)c4nsc(NCCN5CCOCC5)c4Cl)cn3C)cn2C)cc1C(=O)NCCN1CCOCC1 [V-gg] | 32 µg/mL (≈ 41.5 µM) |  | 2, μg/mL and 1 μg/mL | 32 (≈ 41.5 µM) |  |
| Cn1cc(NC(=O)c2cc(NC(=O)c3cc(NC(=O)c4nsc(N5CCCCC5)c4Cl)cn3C)cn2C)cc1C(=O)NCCN1CCOCC1 [V-hh] | 32 µg/mL (≈ 44.1 µM) | 1 (≈ 1.38 µM) | 1 µg/mL (≈ 1.38 µM) | 32 (≈ 44.1 µM) |  |
| COc1snc(C(=O)Nc2cc(C(=O)Nc3cc(C(=O)Nc4cc(C(=O)NCCC(=N)N)n(C)c4)n(C)c3)n(C)c2)c1Cl [V-jj] | 32 µg/mL (≈ 50.9 µM) | 0.25 (≈ 0.397 µM) | 0.5 µg/mL (≈ 0.795 µM) | 1 (≈ 1.59 µM) |  |
| Cn1cc(NC(=O)c2cc(NC(=O)c3cc(NC(=O)c4nsc(Cl)c4Cl)cn3C)cn2C)cc1C(=O)NCCN1CCOCC1 [V-mm] | 32 µg/mL (≈ 47.3 µM) | 0.25 (≈ 0.37 µM) | 0.5 µg/mL (≈ 0.739 µM) | 32 (≈ 47.3 µM) |  |
| CN=C(CCNC(=O)c1cc(NC(=O)c2cc(NC(=O)c3cc(NC(=O)c4nsc(Cl)c4Cl)cn3C)cn2C)cn1C)NC [V-nn] | 32 µg/mL (≈ 48.4 µM) | 0.064 (≈ 0.0967 µM) | 0.031 µg/mL (≈ 0.0469 µM) | 1 (≈ 1.51 µM) |  |
| COc1snc(C(=O)Nc2cc(C(=O)Nc3cc(C(=O)Nc4cc(C(=O)NCCNC(=N)N)n(C)c4)n(C)c3)n(C)c2)c1Cl [V-oo] | 32 µg/mL (≈ 49.7 µM) | 0.5 (≈ 0.776 µM) | 0.25 µg/mL (≈ 0.388 µM) | 1 (≈ 1.55 µM) |  |
| CN=C(N)CCNC(=O)c1cc(NC(=O)c2cc(NC(=O)c3cc(NC(=O)c4nsc(Cl)c4Cl)cn3C)cn2C)cn1C [V-pp] | 32 µg/mL (≈ 49.4 µM) | 0.5 (≈ 0.772 µM) | 0.5 µg/mL (≈ 0.772 µM) | 4 (≈ 6.18 µM) |  |
| CN(C)CCCNC(=O)c1cc(NC(=O)c2cc(NC(=O)c3cc(NC(=O)c4nsc(NCCCN(C)C)c4Cl)cn3C)cn2C)cn1C [V-q] | >128 µg/mL | 4 to 8 | 8 to 16 µg/mL |  | MIC [1]: 4 µg/mL (≈ 5.6 µM); MIC [2]: 4 µg/mL (≈ 5.6 µM); MIC [3]: 16 µg/mL (≈ 22.4 µM); MIC [4]: 2 µg/mL (≈ 2.8 µM); MIC [5]: 1 µg/mL (≈ 1.4 µM); MIC [6]: 1 µg/mL (≈ 1.4 µM); MIC [7]: 4 µg/mL (≈ 5.6 µM); MIC (Micrococcus luteus (381)): 8 µg/mL (≈ 11.2 µM); MIC [9]: >128 µg/mL; MIC [13]: 1 µg/mL (≈ 1.4 µM) |
| Cn1cc(NC(=O)c2cc(NC(=O)c3cc(NC(=O)c4nsc(NCCN)c4Cl)cn3C)cn2C)cc1C(=O)NCCC1=NCCN1 [V-qq] | 32 µg/mL (≈ 46.8 µM) | 0.25 (≈ 0.366 µM) | 0.25 µg/mL (≈ 0.366 µM) | 32 (≈ 46.8 µM) |  |
| COCCCNc1snc(C(=O)Nc2cc(C(=O)Nc3cc(C(=O)Nc4cc(C(=O)NCCN5CCOCC5)n(C)c4)n(C)c3)n(C)c2)c1Cl [V-rr] | 32 µg/mL (≈ 43.9 µM) | 0.5 (≈ 0.686 µM) | 1 µg/mL (≈ 1.37 µM) | 32 (≈ 43.9 µM) |  |
| Cn1cc(NC(=O)c2cc(NC(=O)c3cc(NC(=O)c4nsc(NCC5CC5)c4Cl)cn3C)cn2C)cc1C(=O)NCCN1CCOCC1 [V-tt] | 32 µg/mL (≈ 45 µM) | 0.25 (≈ 0.351 µM) | 0.5 µg/mL (≈ 0.703 µM) | 32 (≈ 45 µM) |  |
| CN(C)CCCNC(=O)CCNC(=O)c1cc(NC(=O)c2cc(NC(=O)c3cc(NC(=O)c4nsc(Cl)c4Cl)cn3C)cn2C)cn1C [V-u] |  |  |  |  | Binding Constant, sequence AATACT (AATACT): 1e+08 M⁻¹; Binding Constant, sequence ACTACT (ACTACT): 1e+09 M⁻¹; Binding Constant, sequence AGTACT (AGTACT): 1e+11 M⁻¹; Binding Constant, sequence ATTACT (ATTACT): 5e+08 M⁻¹ |
| Cn1cc(NC(=O)c2cc(NC(=O)c3cc(NC(=O)c4nsc(Cl)c4Cl)cn3C)cn2C)cc1C(=O)NCCC1=NCCN1 [V-uu] |  | 1 (≈ 1.52 µM) | 0.25 µg/mL (≈ 0.379 µM) |  |  |
| CN(C)CCCNC(=O)c1cc(NC(=O)c2cc(NC(=O)c3cc(NC(=O)c4nsc(N5CCCCC5)c4Cl)cn3C)cn2C)cn1C [V-w] |  |  |  |  | MIC (Bacillus cereus (11778); [15]): 0.5 µg/mL (≈ 0.717 µM) |
| CN(C)CCCNC(=O)CCNC(=O)c1cc(NC(=O)c2cc(NC(=O)c3cc(NC(=O)c4nc(NC(=O)CCCNC(=O)c5cc(NC(=O)c6cc(NC(=O)c7cc(NC(=O)c8nsc(Cl)c8Cl)cn7C)cn6C)cn5C)cn4C)cn3C)cn2C)cn1C [VI-a] |  |  |  |  | Binding Constant, sequence AATACT (AATACT): 2e+09 M⁻¹; Binding Constant, sequence ACTACT (ACTACT): 2e+09 M⁻¹; Binding Constant, sequence AGTACT (AGTACT): 2e+10 M⁻¹; Binding Constant, sequence ATTACT (ATTACT): 2e+09 M⁻¹ |
| CN(C)CCCNC(=O)CCNC(=O)c1cc(NC(=O)c2cc(NC(=O)c3cc(NC(=O)c4nc(NC(=O)CCCNC(=O)c5cc(NC(=O)c6cc(NC(=O)c7cc(NC(=O)c8nsc(NCCCN(C)C)c8Cl)cn7C)cn6C)cn5C)cn4C)cn3C)cn2C)cn1C [VI-b] |  |  |  |  | Binding Constant, sequence AATACT (AATACT): 7e+09 M⁻¹; Binding Constant, sequence ACTACT (ACTACT): 7e+09 M⁻¹; Binding Constant, sequence AGTACT (AGTACT): 1e+11 M⁻¹; Binding Constant, sequence ATTACT (ATTACT): 7e+09 M⁻¹ |
